Data taken from patent US8937064B2, “Pyrazolo[1,5-a]pyrimidines useful as JAK2 inhibitors” (Vertex Pharmaceuticals Incorporated, priority 2007, dated 2015).

Experiments:
JAK3 = molecular target: T1, JAK3 (Homo sapiens, UniProt P52333); test: JAK3 Inhibition Assay; format: biochemical; conditions: 1 nM JAK3, 1 μM poly(Glu)4Tyr, 5 μM ATP, 25° C., 33P incorporation
T1 sequence (P52333 1-1124): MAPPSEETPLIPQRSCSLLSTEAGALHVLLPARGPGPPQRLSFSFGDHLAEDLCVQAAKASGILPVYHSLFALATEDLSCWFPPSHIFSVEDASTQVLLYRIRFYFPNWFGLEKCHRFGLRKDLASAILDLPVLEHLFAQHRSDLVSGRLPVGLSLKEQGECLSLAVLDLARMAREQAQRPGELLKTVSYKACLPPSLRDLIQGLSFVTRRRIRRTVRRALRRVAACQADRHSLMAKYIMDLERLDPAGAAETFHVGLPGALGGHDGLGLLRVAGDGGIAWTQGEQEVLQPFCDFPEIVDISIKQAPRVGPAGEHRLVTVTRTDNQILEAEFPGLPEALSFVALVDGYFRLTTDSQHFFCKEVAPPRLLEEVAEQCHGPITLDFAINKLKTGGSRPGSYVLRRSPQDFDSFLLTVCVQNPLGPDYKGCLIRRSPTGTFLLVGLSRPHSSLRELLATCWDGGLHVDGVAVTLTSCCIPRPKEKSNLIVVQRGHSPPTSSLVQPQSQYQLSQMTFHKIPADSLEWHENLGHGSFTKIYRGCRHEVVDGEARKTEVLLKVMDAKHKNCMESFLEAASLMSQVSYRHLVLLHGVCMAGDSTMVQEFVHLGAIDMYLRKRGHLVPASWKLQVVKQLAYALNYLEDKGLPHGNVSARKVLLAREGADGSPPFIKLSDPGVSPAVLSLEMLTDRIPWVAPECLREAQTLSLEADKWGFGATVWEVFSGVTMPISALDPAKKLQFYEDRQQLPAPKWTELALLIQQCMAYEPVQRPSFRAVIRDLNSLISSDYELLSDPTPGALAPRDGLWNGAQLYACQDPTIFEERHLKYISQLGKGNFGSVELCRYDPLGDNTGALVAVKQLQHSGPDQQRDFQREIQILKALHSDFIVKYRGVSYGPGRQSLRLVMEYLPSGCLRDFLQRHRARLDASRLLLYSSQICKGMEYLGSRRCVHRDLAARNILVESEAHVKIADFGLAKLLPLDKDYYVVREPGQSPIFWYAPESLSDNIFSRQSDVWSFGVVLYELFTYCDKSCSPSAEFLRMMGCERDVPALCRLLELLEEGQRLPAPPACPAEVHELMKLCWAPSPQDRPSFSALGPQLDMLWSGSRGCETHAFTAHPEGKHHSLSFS

JAK-2 enzyme = JAK-2 enzyme (Homo sapiens, UniProt O60674); test: JAK2 Inhibition Assay
Sequence of JAK-2 enzyme (O60674 whole entry): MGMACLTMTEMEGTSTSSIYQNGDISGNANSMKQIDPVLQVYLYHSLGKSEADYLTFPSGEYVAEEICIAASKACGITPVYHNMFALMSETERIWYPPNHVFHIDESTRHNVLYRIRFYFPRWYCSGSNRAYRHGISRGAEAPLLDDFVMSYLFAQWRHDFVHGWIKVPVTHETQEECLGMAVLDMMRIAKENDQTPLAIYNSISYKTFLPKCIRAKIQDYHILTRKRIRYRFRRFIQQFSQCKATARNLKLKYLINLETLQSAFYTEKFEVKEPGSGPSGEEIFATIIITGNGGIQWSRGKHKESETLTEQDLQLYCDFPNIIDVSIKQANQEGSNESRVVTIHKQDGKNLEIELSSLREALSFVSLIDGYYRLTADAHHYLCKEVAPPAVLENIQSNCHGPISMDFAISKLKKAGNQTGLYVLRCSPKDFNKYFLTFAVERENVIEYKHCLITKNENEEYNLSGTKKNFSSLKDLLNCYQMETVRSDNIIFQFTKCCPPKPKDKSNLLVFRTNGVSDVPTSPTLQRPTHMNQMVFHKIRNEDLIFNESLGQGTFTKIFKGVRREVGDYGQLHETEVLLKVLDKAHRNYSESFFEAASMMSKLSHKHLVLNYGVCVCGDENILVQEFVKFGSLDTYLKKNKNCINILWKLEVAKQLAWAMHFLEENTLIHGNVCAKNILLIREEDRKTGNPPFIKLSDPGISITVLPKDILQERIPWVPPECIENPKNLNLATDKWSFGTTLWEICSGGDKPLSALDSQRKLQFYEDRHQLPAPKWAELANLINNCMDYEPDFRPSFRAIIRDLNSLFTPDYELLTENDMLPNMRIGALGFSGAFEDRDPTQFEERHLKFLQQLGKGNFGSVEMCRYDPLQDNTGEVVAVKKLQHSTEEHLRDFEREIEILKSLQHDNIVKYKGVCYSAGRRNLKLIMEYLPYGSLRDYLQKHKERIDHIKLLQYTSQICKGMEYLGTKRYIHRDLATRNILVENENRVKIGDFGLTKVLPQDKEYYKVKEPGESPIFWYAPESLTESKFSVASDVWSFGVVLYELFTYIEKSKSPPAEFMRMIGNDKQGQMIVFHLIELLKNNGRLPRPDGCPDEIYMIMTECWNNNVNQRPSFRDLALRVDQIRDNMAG
Protocol: Reactions were carried out in a kinase buffer containing 100 mM HEPES (pH 7.4), 1 mM DTT, 10 mM MgCl2, 25 mM NaCl, and 0.01% BSA. Substrate concentrations in the assay were 5 μM ATP (200 uCi/μmole ATP) and 1 μM poly(Glu)4Tyr. Reactions were carried out at 25° C. and 1 nM JAK3.
To each well of a 96 well polycarbonate plate was added 1.5 μl of a candidate JAK3 inhibitor along with 50 μl of kinase buffer containing 2 μM poly(Glu)4Tyr and 10 μM ATP. This was then mixed and 50 μl of kinase buffer containing 2 nM JAK3 enzyme was added to start the reaction. After 20 minutes at room temperature (25° C.), the reaction was stopped with 50 μl of 20% trichloroacetic acid (TCA) that also contained 0.4 mM ATP. The entire contents of each well were then transferred to a 96 well glass fiber filter plate using a TomTek Cell Harvester. After washing, 60 μl of scintillation fluid was added and ^33P incorporation detected on a Perkin Elmer TopCount.

Row | Ki (JAK3) | Ki (JAK-2 enzyme) | SMILES
1 | 100 to 500 nM | < 10 nM | C[C@H](Nc1cc(-c2cnn3cccnc23)ncn1)c1ccc(Cl)cc1 [Compound 144]
2 | 10 to 100 nM | < 10 nM | C#CCOc1nc(N[C@@H](C)c2ccc(F)cc2)cc(-c2c(N)nn3cccnc23)n1 [Compound 150]
3 | 10 to 100 nM | < 10 nM | C[C@H](Nc1cc(-c2cnn3cccnc23)nc(OCCNC(C)(C)C)n1)c1ccc(F)cc1F [Compound 206]
4 | 10 to 100 nM | < 10 nM | COC(C)(C)CCOc1nc(N[C@@H](C)c2ccc(F)cc2)cc(-c2c(N)nn3cccnc23)n1 [Compound 178]
5 | 10 to 100 nM | < 10 nM | C[C@H](Nc1cc(-c2c(N)nn3cccnc23)nc(N2CCC(N(C)C)C2)n1)c1ccc(F)cc1 (stereo partly drawn) [Compound 190]
6 | 10 to 100 nM | < 10 nM | CC[C@@H](Nc1cc(-c2c(N)nn3cccnc23)ncn1)c1ccc(F)cc1F [Compound 88]
7 | 10 to 100 nM | < 10 nM | C[C@H](Nc1cc(-c2cnn3cccnc23)nc(OCCN2CCCCC2)n1)c1ccc(F)cc1F [Compound 195]
8 | 100 to 500 nM | < 10 nM | CC1CC1COc1nc(N[C@@H](C)c2ccc(F)cc2F)cc(-c2cnn3cccnc23)n1 (stereo partly drawn) [Compound 214]
9 | 10 to 100 nM | < 10 nM | C[C@H](Nc1cc(-c2cnn3cccnc23)nc(OCCN2CCCC2)n1)c1ccc(F)cc1F [Compound 204]
10 | 10 to 100 nM | < 10 nM | C[C@H](Nc1cc(-c2cnn3cccnc23)nc(OCCN2CCNCC2)n1)c1ccc(F)cc1F [Compound 210]
11 | 10 to 100 nM | < 10 nM | Nc1nn2cccnc2c1-c1cc(NCc2ccc(C(F)(F)F)cc2F)ncn1 [Compound 46]
12 | 10 to 100 nM | < 10 nM | CC[C@H](Nc1cc(-c2cnn3cccnc23)ncn1)c1ccc(F)c(F)c1 [Compound 145]
13 | 10 to 100 nM | < 10 nM | C[C@H](Nc1cc(-c2cnn3cccnc23)nc(OCCC2CCCCN2)n1)c1ccc(F)cc1F (stereo partly drawn) [Compound 198]
14 | 100 to 500 nM | < 10 nM | C[C@H](Nc1cc(-c2cnn3cccnc23)nc(OCC(C)(C)N(C)C)n1)c1ccc(F)cc1F [Compound 193]
15 | 10 to 100 nM | < 10 nM | CSCCOc1nc(N[C@@H](C)c2ccc(F)cc2)cc(-c2c(N)nn3cccnc23)n1 [Compound 173]
16 | 10 to 100 nM | < 10 nM | C[C@H](Nc1cc(-c2c(N)nn3cccnc23)ncn1)c1ccc(F)cc1Cl [Compound 80]
17 | 10 to 100 nM | < 10 nM | CC(Oc1cc(-c2c(N)nn3cccnc23)ncn1)c1ccc(F)cc1 (stereo not drawn) [Compound 71]
18 | 10 to 100 nM | < 10 nM | CCC(Oc1cc(-c2c(N)nn3cccnc23)ncn1)c1ccccc1 (stereo not drawn) [Compound 65]
